{"source": "patent US4029801A", "about": "“Pharmaceutical compositions and methods of treating hypertension” (priority 1970, dated 1977)", "key": {"histamine": {"target": "T1, histamine (Cavia porcellus, UniProt P31389)", "T1 construct": "from tissue", "T1 sequence (P31389 whole entry)": "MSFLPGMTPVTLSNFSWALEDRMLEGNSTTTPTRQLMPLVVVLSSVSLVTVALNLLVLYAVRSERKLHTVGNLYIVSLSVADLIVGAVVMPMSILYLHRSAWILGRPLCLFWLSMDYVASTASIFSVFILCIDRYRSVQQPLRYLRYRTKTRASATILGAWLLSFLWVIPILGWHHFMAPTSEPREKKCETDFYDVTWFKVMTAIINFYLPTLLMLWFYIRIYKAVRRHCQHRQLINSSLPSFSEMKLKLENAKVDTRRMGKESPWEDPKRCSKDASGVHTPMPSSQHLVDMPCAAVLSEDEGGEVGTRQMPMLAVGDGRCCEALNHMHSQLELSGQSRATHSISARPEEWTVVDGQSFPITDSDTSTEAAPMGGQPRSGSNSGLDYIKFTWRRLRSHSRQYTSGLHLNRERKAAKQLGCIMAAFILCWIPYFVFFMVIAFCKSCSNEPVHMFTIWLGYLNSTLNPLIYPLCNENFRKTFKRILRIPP", "test": "Antihistamine activity by the method of Alps et al.", "settings": "for antihistamine activity: result in words"}, "Antiarrhythmic activity": {"test": "Antiarrhythmic activity", "settings": "result in words"}, "[1]": {"system": "blood pressure and heart rate", "test": "Method 1 (rat): hypotensive activity in anaesthetised rats, i.v.", "settings": "for minimal effective dose: Rattus norvegicus, iv; for Significant bradycardia (dose; decrease in heart rate of more than 30%): anaesthetised rat, i.v., cumulative dose"}, "α-adrenoceptor": {"system": "α-adrenoceptor", "test": "α-Adrenoceptor antagonism on the guinea pig aortic strip", "settings": "for α-blockade pA2: Table 4; for α-adrenoceptor antagonism: result in words; for pA2 (α-adrenoceptor antagonism): guinea pig aortic strip", "from_the_text": "Carried out on the guinea pig aortic strip [Furchgott and Bhadrakom (1953) J. Pharmac. exp. Ther. 108, 129-143] by the method of Alps et al [Br. J. Pharmac. 1972 44, 52-62]."}, "blood pressure": {"system": "blood pressure", "test": "Tests for action on the cardiovascular system: hypotensive activity (activity in method 1, rats or cats, or method 2), reported in words", "type": "in vivo, rat, cat", "settings": "standard test procedure, result in words", "procedure,_shortened": "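Method 1: pentobarbitone-anaesthetised cats, test compounds i.v. at 0.1-25.6 mg/kg, aortic blood pressure, heart rate and left ventricular pressure recorded. Method 2: renal hypertensive rats (figure-8 ligature plus contralateral nephrectomy, 6 weeks), dosed IP or orally; systolic pressure by tail plethysmography before and 2 and 24 h post-dose versus controls.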"}, "systolic pressure": {"system": "systolic pressure", "test": "Method 2: anti-hypertensive activity in renal hypertensive rats", "type": "in vivo, rat", "settings": "for Pressure reduced to: hypertensive rat", "method": "Method 2 (hypertensive rats)\nMale or female rats are rendered hypertensive by applying a figure of 8 ligature around one kidney and contralateral nephrectomy. Blood pressure stabilises at a hypertensive level after 6 weeks. Systolic pressure is measured indirectly using a Decker Caudal Plethysmograph A control group of rats is run with each group treated with drug. Each group usually consists of six rats. Drugs are usually administered by the IP or oral routes. Pressures are read prior to drug administration and at two and 24 hours thereafter.\nFalls in systolic blood pressure 2 hr after an oral dose of 40 mg/kg: >50\nmm, +++; 50-30 mm, ++; 30-15 mm, +; <15 mm, ±. g Oral dose of 75 mg/kg\nh Oral dose of 10 mg/kg. i Oral dose of 2.5 mg/kg."}, "[2]": {"system": "blood pressure and heart rate", "test": "Method 1 (cat): blood pressure, heart rate and left ventricular pressure in anaesthetised cats, i.v.", "type": "in vivo", "settings": "3.2 mg/kg", "method": "Cats were anaesthetised with pentobarbitone sodium (30 mg/kg) and the cephalic vein, femoral and carotid arteries and trachea were cannulated. The carotid cannula was introduced into the left ventricle and the femoral cannula into the aorta. Blood pressure and heart rate were recorded from the aortic cannula and left ventricular pressure from the carotid cannula. The test compunds were administered intravenously (0.1-25.6 mg/kg)."}, "Depressant activity": {"test": "Depressant activity", "type": "in vivo", "settings": "result in words"}, "[3]": {"test": "Anti-inflammatory activity", "type": "in vivo", "settings": "result in words"}, "oxotremorine": {"system": "oxotremorine", "test": "Antioxotremorine activity", "type": "in vivo", "settings": "result in words"}, "Anti-convulsant activity": {"test": "Anti-convulsant activity", "type": "in vivo", "settings": "result in words"}, "[4]": {"test": "Acute toxicity (LD50) in the mouse", "settings": "in vivo"}, "mouse": {"system": "mouse", "test": "Acute toxicity (LD50) in the mouse", "settings": "result in words"}, "[5]": {"settings": "Table 4, read-out: Antihistamine pA2 (converted)"}, "[6]": {"settings": "0.25 h, read-out: Hypotensive Activity"}, "[7]": {"settings": "pA2 (antihistamine activity), Table 2"}, "[8]": {"settings": "read-out: Significant hypotension (dose; fall of 30 mm mercury or more in diastolic pressure)"}}, "note": "Like-named read-outs stand apart in the source and are kept apart here.", "data": [{"compound": "O=C(NC1CCN(CCc2ccc3ccccc3c2)CC1)c1ccccc1", "note": "[Example 13, 1-[2-(2-Naphthyl)ethyl]-4-benzamidopiperidine]", "values": [{"measurement": "Kb", "setting": "histamine; [5]", "result": 25.1, "unit": "nM"}, {"measurement": "antihistamine activity", "setting": "histamine", "result": "antihistamine"}, {"measurement": "antiarrhythmic activity", "setting": "Antiarrhythmic activity", "result": "antiarrythmic activities"}, {"measurement": "minimal effective dose", "setting": "[1]; [6]", "result": "1.6 to 3.2", "unit": "mg/kg"}, {"measurement": "α-blockade pA2", "setting": "α-adrenoceptor", "result": 7.4}, {"measurement": "α-adrenoceptor antagonism", "setting": "α-adrenoceptor", "result": "α-adrenoceptor antagonism"}, {"measurement": "hypotensive activity", "setting": "blood pressure", "result": "hypotensive activity"}]}, {"compound": "O=C(CCCN1CCC(NC(=O)c2ccccc2)CC1)c1ccc(F)cc1", "note": "[Example 19, 1-[4-(4-Fluorophenyl)-4-oxobutyl]-4-benzamidopiperidine]", "values": [{"measurement": "Kb", "setting": "histamine; [7]", "result": 2.51, "unit": "nM"}, {"measurement": "antihistamine activity", "setting": "histamine", "result": "antihistamine"}, {"measurement": "Pressure reduced to", "setting": "systolic pressure; 10 mg/kg p.o., from 188 mmHg", "result": 138, "unit": "mmHg"}, {"measurement": "minimal effective dose", "setting": "[1]; [6]", "result": 0.8, "unit": "mg/kg"}, {"measurement": "minimal effective dose", "setting": "[1]; [8]", "result": "0.8 to 1.6", "unit": "mg/kg"}, {"measurement": "Significant bradycardia (dose; decrease in heart rate of more than 30%)", "setting": "[1]", "result": 1.6, "unit": "mg/kg"}, {"measurement": "α-blockade pA2", "setting": "α-adrenoceptor", "result": 7.5}, {"measurement": "pA2 (α-adrenoceptor antagonism)", "setting": "α-adrenoceptor", "result": 7.4}, {"measurement": "Significant lowering of blood pressure", "setting": "[2]", "result": 38, "unit": "mmHg"}, {"measurement": "cardiac effort index", "setting": "[2]", "result": "lowered"}, {"measurement": "cardiac output", "setting": "[2]", "result": "decreased"}, {"measurement": "heart rate lowered", "setting": "[2]", "result": 28.9, "unit": "%"}, {"measurement": "myocardial contractile force decreased", "setting": "[2]", "result": 25.7, "unit": "%"}, {"measurement": "depressant activity", "setting": "Depressant activity", "result": "depressant"}, {"measurement": "hypotensive activity", "setting": "blood pressure", "result": "marked hypotensive activity"}, {"measurement": "anti-inflammatory activity", "setting": "[3]", "result": "antiinflammatory activity"}]}, {"compound": "O=C(NC1CCN(CC(O)c2ccccc2)CC1)c1ccccc1", "note": "(stereo not drawn) [Example 20, 1-(2-Hydroxy-2-phenylethyl)-4-benzamidopiperidine]", "values": [{"measurement": "antihistamine activity", "setting": "histamine", "result": "antihistamine"}, {"measurement": "antioxotremorine activity", "setting": "oxotremorine", "result": "antioxotremorine activity"}, {"measurement": "minimal effective dose", "setting": "[1]; [6]", "result": "6.4 to 12.8", "unit": "mg/kg"}, {"measurement": "α-blockade pA2", "setting": "α-adrenoceptor", "result": 6.6}, {"measurement": "hypotensive activity", "setting": "blood pressure", "result": "hypotensive activity"}]}, {"compound": "O=C(NC1CCN(CC(O)c2ccc(Cl)c(Cl)c2)CC1)c1ccccc1", "note": "(stereo not drawn) [Example 36, 1-[2-(3,4-Dichlorophenyl)-2-hydroxyethyl]-4-benzamidopiperidine]", "values": [{"measurement": "anti-convulsant activity", "setting": "Anti-convulsant activity", "result": "anti-convulsant activities"}, {"measurement": "minimal effective dose", "setting": "[1]; [6]", "result": "< 30", "unit": "mg/kg"}, {"measurement": "hypotensive activity", "setting": "blood pressure", "result": "hypotensive"}]}, {"compound": "O=C(CCCN1CCC(NC(=O)c2ccccc2)CC1)c1ccccc1", "note": "[Example 43, 4-Benzamido-1-(4-phenyl-4-oxobutyl)piperidine]", "values": [{"measurement": "Kb", "setting": "histamine; [5]", "result": 0.251, "unit": "nM"}, {"measurement": "Kb", "setting": "histamine; [7]", "result": 0.316, "unit": "nM"}, {"measurement": "antihistamine activity", "setting": "histamine", "result": "antihistamine"}, {"measurement": "Anti-hypertensive Activity", "setting": "systolic pressure; Table 3, fall in systolic blood pressure 2 hr after oral dose of 40 mg/kg", "result": "+ ++"}, {"measurement": "Pressure reduced to", "setting": "systolic pressure; 40 mg/kg p.o., from 174 mmHg", "result": 122, "unit": "mmHg"}, {"measurement": "antiarrhythmic activity", "setting": "Antiarrhythmic activity", "result": "antiarrythmic activities"}, {"measurement": "minimal effective dose", "setting": "[1]; [6]", "result": 0.8, "unit": "mg/kg"}, {"measurement": "minimal effective dose", "setting": "[1]; [8]", "result": "0.8 to 1.6", "unit": "mg/kg"}, {"measurement": "Significant bradycardia (dose; decrease in heart rate of more than 30%)", "setting": "[1]", "result": "0.8 to 1.6", "unit": "mg/kg"}, {"measurement": "pA2 (α-adrenoceptor antagonism)", "setting": "α-adrenoceptor", "result": 7.7}, {"measurement": "α-adrenoceptor antagonism", "setting": "α-adrenoceptor", "result": "α-adrenoceptor antagonist"}, {"measurement": "Significant lowering of blood pressure", "setting": "[2]", "result": 52, "unit": "mmHg"}, {"measurement": "cardiac effort index", "setting": "[2]", "result": "lowered"}, {"measurement": "cardiac output", "setting": "[2]", "result": "lowered"}, {"measurement": "heart rate lowered", "setting": "[2]", "result": 35, "unit": "%"}, {"measurement": "myocardial contractile force decreased", "setting": "[2]", "result": 33, "unit": "%"}, {"measurement": "hypotensive activity", "setting": "blood pressure", "result": "marked hypotensive activity"}]}, {"compound": "O=C(NC1CCN(CCc2ccc(Cl)cc2)CC1)c1ccccc1", "note": "[Example 48, 4-Benzamido-1-[2-(p-chlorophenyl)ethyl]piperidine]", "values": [{"measurement": "anti-convulsant activity", "setting": "Anti-convulsant activity", "result": "anti-convulsant activity"}, {"measurement": "minimal effective dose", "setting": "[1]; [6]", "result": "6.4 to 12.8", "unit": "mg/kg"}, {"measurement": "hypotensive activity", "setting": "blood pressure", "result": "hypotensive activity"}]}, {"compound": "O=C(CCCN1CCC(NC(=O)c2ccccc2)CC1)c1ccc(O)cc1", "note": "[Example 63, 4-Benzamido-1-[4-(4-hydroxyphenyl)-4-oxobutyl]piperidine]", "values": [{"measurement": "Kb", "setting": "histamine; [5]", "result": 1.26, "unit": "nM"}, {"measurement": "minimal effective dose", "setting": "[1]; [6]", "result": 25.6, "unit": "mg/kg"}, {"measurement": "α-blockade pA2", "setting": "α-adrenoceptor", "result": 7.0}, {"measurement": "α-adrenoceptor antagonism", "setting": "α-adrenoceptor", "result": "α-adrenoceptor antagonism"}, {"measurement": "hypotensive activity", "setting": "blood pressure", "result": "good hypotensive activity"}, {"measurement": "LD50", "setting": "[4]; ip", "result": 1630, "unit": "mg/kg"}, {"measurement": "LD50 at 24 h", "setting": "[4]; ip", "result": "> 4000", "unit": "mg/kg"}, {"measurement": "LD50", "setting": "[4]; po", "result": "> 4000", "unit": "mg/kg"}, {"measurement": "toxicity", "setting": "mouse", "result": "remarkably low toxicity"}]}]}
